Values of other authors, collected in US20060292225A1, “WATER SOLUBLE ANALGESIC FORMULATIONS AND METHODS FOR PRODUCTION” (priority 2005, published 2006).
Read-outs that look alike come from different tables or passages of the source.

Key:
[1] = aqueous, hydrolysis

pH of maximum stability [1]: 2.4
SMILES: CC(=O)Oc1ccccc1C(=O)O [aspirin, Acetylsalicylic acid]
incidence of side effects (nausea, gastric upset, pain) (higher anti-inflammatory dosages): about 25%
incidence of side effects (nausea, gastric upset, pain) (low analgesic dose levels, adult users): 2-10%
rate of successful treatment (arthritis inflammation; daily dosage 2500 mg): less than 10%
rate of successful treatment (arthritis inflammation; daily dosages of 4,000 to 5,000 mg or greater): over 70%
